According to ChEMBL document CHEMBL1201862, “PubChem BioAssay data set” (2004):
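1) Cells in 96-well plates. 2) Compound, 48 h, 5 concentrations. 3) Linear interpolation between surrounding doses. 4) Unreached endpoint = highest concentration. GI50 = concentration required for 50% inhibition of growth.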 Active and inactive are the calls of the source. Cut-off read from the data, not from the text of the source: active = GI50 up to about 1.1 µM and inactive = higher.

Experiments:
Assay in all cases: NCI tumour cell line growth inhibition, 48 h
[1] = test system: OVCAR-3
[2] = test system: SK-OV-3
[3] = test system: OVCAR-5
[4] = test system: EKVX
[5] = test system: UACC-62
[6] = test system: COLO 205
[7] = test system: SF-268
[8] = test system: CCRF-CEM
[9] = test system: NCI/ADR-RES
[10] = test system: HCT-116
[11] = test system: K562
[12] = test system: NCI-H23
[13] = test system: NCI-H226
[14] = test system: UACC-257
[15] = test system: CAKI-1
[16] = test system: SK-MEL-28
[17] = test system: SNB-75
[18] = test system: IGROV-1
[19] = test system: SF-295
[20] = test system: A549

Compound	GI50 [1]	GI50 [2]	GI50 [3]	GI50 [4]	GI50 [5]	GI50 [6]	GI50 [7]	GI50 [8]	GI50 [9]	GI50 [10]	GI50 [11]	GI50 [12]	GI50 [13]	GI50 [14]	GI50 [15]	GI50 [16]	GI50 [17]	GI50 [18]	GI50 [19]	GI50 [20]
C[C@H](CN1CC(=O)NC(=O)C1)N1CC(=O)NC(=O)C1	> 100 µM (inactive)	> 100 µM (inactive)	> 100 µM (inactive)	57 µM (inactive)	> 100 µM (inactive)	11.7 µM (inactive)	> 96.2 µM (inactive)	34.3 µM (inactive)	> 100 µM (inactive)	82.4 µM (inactive)	> 84.3 µM (inactive)	> 86.1 µM (inactive)	39 µM (inactive)	> 100 µM (inactive)	> 100 µM (inactive)	> 100 µM (inactive)	> 100 µM (inactive)	> 100 µM (inactive)	> 100 µM (inactive)	> 70.5 µM (inactive)
CCOC(=O)N1CCN(C(=O)Nc2cccc3ccccc23)CC1	> 10 µM (inactive)	> 10 µM (inactive)	> 10 µM (inactive)	> 10 µM (inactive)	> 10 µM (inactive)	> 10 µM (inactive)	> 10 µM (inactive)	> 10 µM (inactive)	> 10 µM (inactive)	> 10 µM (inactive)	> 10 µM (inactive)	> 10 µM (inactive)	> 10 µM (inactive)	–	> 10 µM (inactive)	> 10 µM (inactive)	> 10 µM (inactive)	> 10 µM (inactive)	> 10 µM (inactive)	> 10 µM (inactive)
COc1ccc2c(c1)CCCc1cn[nH]c1-2	> 100 µM (inactive)	> 100 µM (inactive)	> 100 µM (inactive)	> 74.6 µM (inactive)	> 100 µM (inactive)	> 100 µM (inactive)	> 100 µM (inactive)	> 72.4 µM (inactive)	> 100 µM (inactive)	> 100 µM (inactive)	> 65.8 µM (inactive)	> 100 µM (inactive)	> 100 µM (inactive)	> 100 µM (inactive)	77.8 µM (inactive)	> 100 µM (inactive)	> 100 µM (inactive)	–	> 100 µM (inactive)	> 100 µM (inactive)
O=C1C2=C(C3=NCCc4c[nH]c1c43)C1(C=C(Br)C(O)C(Br)=C1)CCN2 (stereo not drawn)	1.03 µM (active)	13.3 µM (inactive)	2.65 µM (inactive)	1.07 µM (active)	0.851 µM (active)	0.115 µM (active)	0.966 µM (active)	1.96 µM (inactive)	0.421 µM (active)	0.625 µM (active)	2.3 µM (inactive)	0.792 µM (active)	3.4 µM (inactive)	0.614 µM (active)	4.4 µM (inactive)	7.69 µM (inactive)	10 µM (inactive)	0.881 µM (active)	2.48 µM (inactive)	3.15 µM (inactive)
CNC(=O)SCC(NC(=O)CCC(N)C(=O)O)C(=O)NCC(=O)O (stereo not drawn)	> 100 µM (inactive)	> 100 µM (inactive)	> 100 µM (inactive)	75 µM (inactive)	98.9 µM (inactive)	51.2 µM (inactive)	> 80.4 µM (inactive)	> 50 µM (inactive)	> 100 µM (inactive)	> 84.7 µM (inactive)	34.8 µM (inactive)	> 100 µM (inactive)	> 100 µM (inactive)	> 100 µM (inactive)	> 100 µM (inactive)	> 100 µM (inactive)	> 100 µM (inactive)	> 100 µM (inactive)	> 100 µM (inactive)	> 100 µM (inactive)
CC(C)=CCc1c(C)cc2cc3c(c(O)c2c1O)C(=O)C=C(O)C3(CC=C(C)C)C/C=C(\C)CO (stereo not drawn)	36.9 µM (inactive)	36.7 µM (inactive)	48.2 µM (inactive)	35.7 µM (inactive)	32.3 µM (inactive)	40.5 µM (inactive)	36.7 µM (inactive)	11.5 µM (inactive)	47.9 µM (inactive)	37 µM (inactive)	23.3 µM (inactive)	37.4 µM (inactive)	34.2 µM (inactive)	43.7 µM (inactive)	46.3 µM (inactive)	46.2 µM (inactive)	48.3 µM (inactive)	38.1 µM (inactive)	45.2 µM (inactive)	33.3 µM (inactive)
